“Also recorded” adds a separate entry of the source.
Key:
Angptl4 [1] = assay: Sialylation of recombinant Angptl4 in Angptl4-HEK293 stable cell line incubated with ManNAc; assay type: cell-based, rat; conditions: ManNAc 25 mM, 48 hours
Experimental: To study the effect of manNAc on the sialylation of recombinant protein, the Angptl4-HEK293 stable or pcDNA3.1-HEK293 control stable cell lines were grown to confluence in 15 cm dishes, washed twice with warm PBS, then incubated with serum free DMEM without phenol red with or without 25 mM manNAc for 48 hours, after which the media was harvested, concentrated, protein assay conducted, and loaded on the 2D gels (200 μg/gel). Western blots of glomeruli or recombinant protein were conducted using rabbit anti-Angptl4 (full length) antibody, preimmune rabbit serum and lectins SNA I-HRP and MAA-HRP (E-Y laboratories, San Mateo Calif. USA).

Angptl4 [2] = assay: 2D gel electrophoresis, Western blot and densitometry of glomerular Angptl4 from ManNAc fed NPHS2-Angptl4 TG rats; assay type: in vivo, rat
Excerpt: The following techniques are described in prior publications: Taqman real time PCR (26), confocal imaging (7), in situ hybridization (27), promoter—reporter studies (7), immunogold EM (26), glomerular extraction and processing for Western blot (26), assessment of charge by PEI method (28); the foregoing references are hereby incorproated by reference for such teachings. For alcian blue staining, the pH of the staining solution was adjusted to 2.5 using acetic acid, and 0.1% nuclear fast red solution was used as a counterstain. Densitometry of glomerular basement membrane alcian blue stain (20 glomeruli/rat, 3 rats/group) was assessed using Image-Pro software (Media Cybernetics, Inc., Bethesda Md., USA). Densitometry of 2D gel Western blots was assessed using Gel-Pro Analyzer software (Media Cybernetics, Inc.). For in situ hybridization, the digoxigenin labeled probe for rat Angptl4 included bp 1 to 548 of the ORF.
To study the effect of manNAc on the sialylation of recombinant protein, the Angptl4-HEK293 stable or pcDNA3.1-HEK293 control stable cell lines were grown to confluence in 15 cm dishes, washed twice with warm PBS, then incubated with serum free DMEM without phenol red with or without 25 mM manNAc for 48 hours, after which the media was harvested, concentrated, protein assay conducted, and loaded on the 2D gels (200 μg/gel). […]
To make the study affordable, 7 homozygous male NPHS2-Angptl4 rats, age 3-3.5 months, with 15-25 fold higher albuminuria than wild type rats, were given ManNAc 1 mg/ml of tap water for 12 days (ManNAc phase), after which three were euthanized and the others returned to plain tap water for another 24 days (washout phase). […] Another seven male NPHS2-Angptl4 rats of similar age were assessed for baseline albuminuria levels, given normal tap water (control group), three euthanized on Day 12 and others followed up to day 36, after which albuminuria was reassessed and the animals euthanized. […]

NPHS2-Angptl4 TG rats = assay: Albuminuria in NPHS2-Angptl4 TG rats given ManNAc in tap water; assay type: in vivo, rat
Excerpt: Transgenic rats were generated by microinjection of the digested DNA constructs into fertilized Sprague Dawley eggs (conducted at University of Michigan), implantation into pseudopregnant host Sprague Dawley females, and the resulting offsprings were genotyped by routine PCR and TaqMan genomic DNA real time PCR strategy using construct specific and control genomic prolactin primer and probe combinations. Two founder lines for podocyte specific expression were generated. Data from NPHS2-Angptl4 TG rat line 740 (5 copies of the transgene) and were stable over 4 generations, are presented. Urinary total protein was assessed using the Bradford method (Biorad laboratories, Hercules Calif. USA), and albuminuria by ELISA (Bethyl laboratories, Montgomery Tex. USA).
To make the study affordable, 7 homozygous male NPHS2-Angptl4 rats, age 3-3.5 months, with 15-25 fold higher albuminuria than wild type rats, were given ManNAc 1 mg/ml of tap water for 12 days (ManNAc phase), after which three were euthanized and the others returned to plain tap water for another 24 days (washout phase). 18 hour urine collections were done twice (Day- 12 and Day 0) before the study to confirm rising albuminuria, and periodically during the study. Another seven male NPHS2-Angptl4 rats of similar age were assessed for baseline albuminuria levels, given normal tap water (control group), three euthanized on Day 12 and others followed up to day 36, after which albuminuria was reassessed and the animals euthanized. Daily water intake of each rat was charted. At each euthanasia time point, kidneys were removed after perfusion, glomeruli isolated and processed for 2D gel electrophoresis. Albuminuria on Day 0 for each rats was denoted as 100% and all subsequent albuminuria values were expressed relative to Day 0.

[3] = tested on: rats with puromycin aminonucleoside nephrosis (PAN model); assay: Nephrotic syndrome parameters in puromycin aminonucleoside nephrosis (PAN model) rats treated with ManNAc; assay type: in vivo, rat; conditions: ManNAc 80 mg/Kg body weight in tap water from Day 4, Day 6
Experimental: FIGS. 7A-D show improvement in nephrotic syndrome parameters in ManNAc treated rats with puromycin aminonucleoside nephrosis (PAN model). In FIGS. 7A-7D, rats (n=5 rats/group) received a single intravenous injection of puromycin aminonucleoside (10 mg/100 gm), and were treated with ManNAC 80 mg/Kg body weight in tap water starting on Day 4, which coincides with the onset of proteinuria.
Rats (n=5 rats/group) received a single intravenous injection of puromycin aminonucleoside (10 mg/100 gm), and were treated with ManNAC 80 mg/Kg body weight in tap water starting on Day 4, which coincides with the onset of proteinuria. Data from Day 6 is shown.

[4] = tested on: Zucker Diabetic Fatty rats; assay: Proteinuria in Zucker Diabetic Fatty rats treated with ManNAc; assay type: in vivo, rat; conditions: 13 week old male rats, ManNAc in tap water, 70 mg/Kg up to 20 days and 140 mg/Kg, vs plain tap water
Experimental: 13 week old male Zucker Diabetic Fatty rats were treated with ManNAc in tap water or with plain tap water (n=4 rats/group) at 70 and 140 mg/Kg.
These high pI hyposialylated forms of Angptl4 are sensitive to sialic acid precursor therapy, including ManNAc and ManNAc derivatives. […] In FIG. 8C, 13 week old male Zucker diabetic fatty rats were treated with ManNAc in tap water or with plain tap water (n=4 rats/group).

mouse Angptl4 promoter = assay: Angptl4 promoter-reporter (SEAP) study in HEK 293 cells and GECs; assay type: cell-based; conditions: mifepristone 2×10^−5 M, glucocorticoid receptor antagonist
Experimental: We conducted 5′ RACE and primer extension analysis using mouse kidney mRNA and confirmed the same transcriptional start site in the kidney. Next, a 2 Kb fragment upstream of the transcriptional start site was clone using BAC clone RP23-27D5 as a template into pSEAP2 basic. A 2 Kb human Angptl4 promoter constructs were similarly generated using BAC clone RP11-886P16.
Incubation of HEK 293 cells and GECs transfected with Angptl4-pSEAP or empty vector promoter—reporter constructs for mouse Angptl4 with dexamethasone (10^−3 M) show a decline in SEAP activity at 48 hours. This decline in activity is mediated via the glucocorticoid receptor, since it is reversed by the receptor antagonist mifepristone (2×10^−5 M). Glucocorticoid sensitivity of the human promoter was also assessed (dexamethasone 10^−4 M). All transfection reactions were normalized using the pβgal vector (Clontech, Mountain View Calif. USA).

CC(=O)N[C@@H]1C(O)O[C@H](CO)[C@@H](O)[C@@H]1O (stereo partly drawn) [ManNAc, N-acetylmannosamine]
reactivity of Angptl4 to sialic acid binding lectin MAA (Angptl4 [1]): increased reactivity | sialylation of Angptl4 (Angptl4 [1]): increased sialylation | electrophoretic migration (pI) of secreted Angptl4 (Angptl4 [1]; serum free, concentrated supernatant): shift of the protein towards neutral pI; also recorded: shift from high pI forms | percentage of neutral pI forms of Angptl4 (effect in words) (Angptl4 [2]; Day 12, ManNAc fed rats vs control TG rats): significant increase | sialylation of glomerular Angptl4 (reactivity with lectin SNA I) (Angptl4 [2]; Day 12, ManNAc treated rats): increased sialylation | neutral pI Angptl4 fraction (densitometry of Western blots, glomerular Angptl4) (Angptl4 [2]; rats euthanized on Day 12, ManNAc 1 mg/ml): 72.9 ± 1.4% | 18 hour albuminuria, nadir on Day 12 (NPHS2-Angptl4 TG rats; 1 mg/ml ManNAc in tap water for 12 days, Day 0 = 100%): 59.4±3.3 % of baseline | albuminuria (effect in words) (NPHS2-Angptl4 TG rats; ManNAc 1 mg/ml in tap water for 12 days): reduced albuminuria; also recorded: significant reduction | reduction in albuminuria compared to baseline (NPHS2-Angptl4 TG rats; ManNAc 1 mg/ml in tap water, over a 12 day period): over 40% | albuminuria after washout (NPHS2-Angptl4 TG rats; after 12 days of washout following 12 days ManNAc 1 mg/ml): returned towards baseline values | reduction in albuminuria maintained (NPHS2-Angptl4 TG rats; pilot studies, heavily albuminuric NPHS2-Angptl4 rats, ManNAc 8 mg/ml tap water): 20-30% | albuminuria (effect in words) (NPHS2-Angptl4 TG rats; pilot studies, heavily albuminuric rats, increasing doses of ManNAc (1 to 8 mg/ml)): reduced albuminuria | hypercholesterolemia (cholesterol) [3]: significant reduction | hypertriglyceridemia (triglycerides) [3]: significant reduction | plasma albumin levels [3]: significant improvement | proteinuria ([3]; vs control PAN rats): significant reduction | proteinuria [4]: Significant reduction

CC#C[C@]1(O)CC[C@H]2[C@@H]3CCC4=CC(=O)CCC4=C3[C@@H](c3ccc(N(C)C)cc3)C[C@@]21C [mifepristone]
dexamethasone-induced decline in SEAP activity (mouse Angptl4 promoter): reversed
